We go through 37 molecules from US12129237B2, “Substituted diaminocarboxamide and diaminocarbonitrile pyrimidines, compositions thereof, and methods of treatment therewith” (SIGNAL PHARMACEUTICALS, LLC, priority 2011, dated 2024).

Like-named read-outs stand apart in the source and are kept apart here.

The test concerns the target T1, JNK1 (Homo sapiens, UniProt P45983).
T1 construct: purchased Carna Biosciences
Nature of the test: JNK1 biochemical assays (one or more of: time resolved fluorescence, Z'-LYTE Cascade, radioactive).

Setting [1] is: one or more of the JNK1 biochemical assays, read-out: Act. Level (JNK1 IC50 activity level).
The mark [2] stands for this setting: tested in one or more of the JNK1 biochemical assays, read-out: Act. Level (JNK1 biochemical assay IC50 activity level).
Where [3] appears, read: Table 2, JNK1 IC50 activity level, read-out: Act. Level.
The mark [4] stands for this setting: Table 3, JNK1 IC50 activity level, read-out: Act. Level.

T1 sequence (P45983 whole entry): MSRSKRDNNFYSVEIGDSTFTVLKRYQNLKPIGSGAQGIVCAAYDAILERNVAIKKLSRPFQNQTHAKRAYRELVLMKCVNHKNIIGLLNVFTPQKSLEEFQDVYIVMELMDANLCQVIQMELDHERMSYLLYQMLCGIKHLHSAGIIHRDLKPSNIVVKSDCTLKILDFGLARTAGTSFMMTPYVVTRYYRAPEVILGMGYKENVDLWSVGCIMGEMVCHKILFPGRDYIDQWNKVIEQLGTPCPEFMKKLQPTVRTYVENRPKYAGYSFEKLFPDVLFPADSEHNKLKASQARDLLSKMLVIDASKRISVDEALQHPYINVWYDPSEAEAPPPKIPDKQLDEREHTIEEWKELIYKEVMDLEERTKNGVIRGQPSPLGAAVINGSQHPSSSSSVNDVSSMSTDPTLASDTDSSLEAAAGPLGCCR

On to `CO[C@H]1CC[C@H](Nc2ncc(C(N)=O)c(NC3CCC3C)n2)CC1` (stereo partly shown) [Example 242, 2-((1r,4r)-4-methoxycyclohexylamino)-4-(2-methylcyclobutylamino)pyrimidine-5-carboxamide], for which the IC50 under setting [1] was less than 200 nM. As to `C[C@@H]1CC[C@@H](Nc2nc(N[C@H](C)C3CC3)ncc2C(N)=O)C[C@H]1O` [Example 394, 2-((R)-1-cyclopropylethylamino)-4-((1R,3R,4R)-3-hydroxy-4-methylcyclohexylamino)pyrimidine-5-carboxamide], the IC50 under setting [1] is less than 200 nM. The same measure, in the same setting: in the case of `CC1(Nc2nc(NC3CCOCC3)ncc2C(N)=O)CCC1` [Example 413, 4-(1-methylcyclobutylamino)-2-(tetrahydro-2H-pyran-4-ylamino)pyrimidine-5-carboxamide] it was less than 200 nM. The same measure, in the same setting: in the case of `CCO[C@H]1CC[C@H](Nc2ncc(C(N)=O)c(NC3(CC)CCCC3)n2)CC1` [Example 464, 2-((1r,4r)-4-ethoxycyclohexylamino)-4-(1-ethylcyclopentylamino)pyrimidine-5-carboxamide] it was less than 200 nM; in that of `CCC(C)(C)Nc1ncc(C(N)=O)c(N[C@@H]2CCC[C@H](O)C2)n1` [Example 351, 4-((1R,3S)-3-hydroxycyclohexylamino)-2-(tert-pentylamino)pyrimidine-5-carboxamide], less than 200 nM; in that of `CC(C)(C)Nc1nc(N[C@H]2CC[C@H](OC3CC3)CC2)ncc1C(N)=O` [Example 304, 4-(tert-butylamino)-2-((1r,4r)-4-cyclopropoxycyclohexylamino)pyrimidine-5-carboxamide], less than 200 nM. Regarding `COC(=O)N1CCC(Nc2ncc(C(N)=O)c(NC3CCCCC3)n2)CC1` [Example A-123, methyl 4-(5-carbamoyl-4-(cyclohexylamino)pyrimidin-2-ylamino)piperidine-1-carboxylate], under setting [2], the IC50 is less than 200 nM. As for `NC(=O)c1cnc(NCc2cc(F)cc(F)c2)nc1Nc1ccccc1` [Example B-52, 2-(3,5-difluorobenzylamino)-4-(phenylamino)pyrimidine-5-carboxamide], the IC50 under setting [3] lay in the range of 800 to 1000 nM.

For `C[C@@H](Nc1nc(N[C@H]2CC[C@H](O)CC2)ncc1C(N)=O)C(C)(C)C` [Example 281, 4-((R)-3,3-dimethylbutan-2-ylamino)-2-((1r,4R)-4-hydroxycyclohexylamino)pyrimidine-5-carboxamide], the IC50 under setting [1] is less than 200 nM. Regarding `CC(C)Nc1ncc(C(N)=O)c(N[C@H]2CC[C@@H](CO)CC2)n1` [Example A-139, 4-((1s,4s)-4-(hydroxymethyl)cyclohexylamino)-2-(isopropylamino)pyrimidine-5-carboxamide], the IC50 under setting [2] was in the range of 200 to 800 nM.

In the case of `CC(C)(C)Nc1ncc(C#N)c(N[C@@H]2CCC[C@H](O)C2)n1` [Example C-7, 2-(tert-butylamino)-4-((1R,3S)-3-hydroxycyclohexylamino) pyrimidine-5-carbonitrile], under setting [4], the IC50 was in the range of 200 to 800 nM. As to `CNC(=O)c1cnc(N[C@H]2CC[C@H](OC)CC2)nc1N[C@@H]1CCC[C@H](O)C1` [Example 206, 4-((1R,3S)-3-hydroxycyclohexylamino)-2-((1r,4R)-4-methoxycyclohexylamino)-N-methylpyrimidine-5-carboxamide], the IC50 under setting [1] was 200 to 800 nM. Same read-out and setting: in the case of `C[C@@H](Nc1nc(N[C@@H]2CCC[C@H](O)C2)ncc1C(N)=O)C1CC1` [Example 423, 4-((R)-1-cyclopropylethylamino)-2-((1R,3S)-3-hydroxycyclohexylamino)pyrimidine-5-carboxamide] it was less than 200 nM. As for `C[C@H]1C[C@@H](Nc2nc(N[C@H]3CC[C@H](O)CC3)ncc2C(N)=O)C1` [Example 327, 2-((1r,4r)-4-hydroxycyclohexylamino)-4-((1s,3s)-3-methylcyclobutylamino)pyrimidine-5-carboxamide], under setting [1], the IC50 is less than 200 nM.

`CO[C@H]1CC[C@@H](Nc2nc(N[C@H]3CC[C@H](O)C3)ncc2C(N)=O)CC1` [Example A-81, 2-((1S,3S)-3-hydroxycyclopentylamino)-4-((1s,4R)-4-methoxycyclohexylamino)pyrimidine-5-carboxamide]: under setting [2], the IC50 is less than 200 nM.

Regarding `C[C@@H]1CC[C@@H](Nc2nc(NC3CCC(F)(F)CC3)ncc2C(N)=O)C[C@H]1O` [Example A-198, 2-(4,4-difluorocyclohexylamino)-4-((1R,3R,4R)-3-hydroxy-4-methylcyclohexylamino)pyrimidine-5-carboxamide], the IC50 under setting [2] was less than 200 nM. For the molecule `C[C@@H]1CC[C@@H](Nc2nc(NC3COC3)ncc2C(N)=O)C[C@H]1O` [Example 312, 4-((1R,3R,4R)-3-hydroxy-4-methylcyclohexylamino)-2-(oxetan-3-ylamino)pyrimidine-5-carboxamide], the IC50 under setting [1] was less than 200 nM. Take `CC(C)(C)Nc1nc(N[C@H]2CCC[C@H](O)C2)ncc1C(N)=O` [Example 305, 4-(tert-butylamino)-2-((1S,3S)-3-hydroxycyclohexylamino)pyrimidine-5-carboxamide]: the IC50 under setting [1] is less than 200 nM.

As to `N#Cc1cnc(N[C@H]2CC[C@H](O)CC2)nc1NC1CC(F)(F)C1` [Example C-58, 4-(3,3-difluorocyclobutylamino)-2-((1r,4r)-4-hydroxycyclohexylamino) pyrimidine-5-carbonitrile], the IC50 under setting [4] is 1000 to 10000 nM. Consider `CC(C)(Nc1nc(N[C@H]2CCCOC2)ncc1C(N)=O)C1CC1` [Example 468, (S)-4-(2-cyclopropylpropan-2-ylamino)-2-(tetrahydro-2H-pyran-3-ylamino)pyrimidine-5-carboxamide], for which the IC50 under setting [1] is less than 200 nM. `C[C@@H]1CC[C@@H](Nc2nc(NC3(C)CCCC3)ncc2C(N)=O)C[C@H]1O` [Example 475, 4-((1R,3R,4R)-3-hydroxy-4-methylcyclohexylamino)-2-(1-methylcyclopentylamino)pyrimidine-5-carboxamide]: the IC50 under setting [1] was less than 200 nM.

`CC(C)(C)Nc1ncc(C(N)=O)c(NC(C)(C)C)n1` [Example 238, 2,4-bis(tert-butylamino)pyrimidine-5-carboxamide]: the IC50 under setting [1] was 200 to 800 nM. For `CC(C)(C)Nc1ncc(C(N)=O)c(N[C@@H]2CCCOC2)n1` [Example 236, (R)-2-(tert-butylamino)-4-(tetrahydro-2H-pyran-3-ylamino)pyrimidine-5-carboxamide], under setting [1], the IC50 was 200 to 800 nM. For the molecule `CC1(C)CCC(Nc2nc(NC(C)(C)C)ncc2C(N)=O)C(O)C1` (stereo not shown) [Example 343, 2-(tert-butylamino)-4-(2-hydroxy-4,4-dimethylcyclohexylamino)pyrimidine-5-carboxamide], the IC50 under setting [1] is less than 200 nM. For `CN(C)C(=O)[C@H]1CC[C@H](Nc2ncc(C#N)c(N[C@@H]3CCC[C@H](O)C3)n2)CC1` [Example C-9, (1R,4r)-4-(5-cyano-4-((1R,3S)-3-hydroxycyclohexylamino)pyrimidin-2-ylamino)-N,N-dimethylcyclohexanecarboxamide], the IC50 under setting [4] was less than 200 nM. Still for that read-out and setting: in the case of `N#Cc1cnc(NC2CCC(F)(F)CC2)nc1N[C@@H]1CCC[C@@H]1CO` [Example C-64, 2-(4,4-difluorocyclohexylamino)-4-((1R,2S)-2-(hydroxymethyl)cyclopentylamino) pyrimidine-5-carbonitrile] it was 200 to 800 nM. On the same count and under the same terms, in the case of `[2H]C([2H])([2H])O[C@H]1CC[C@H](Nc2ncc(C#N)c(N[C@@H]3CCC[C@](C)(O)C3)n2)CC1` [Example C-56, 4-((1R,3S)-3-hydroxy-3-methylcyclohexylamino)-2-((1r,4R)-4-((^2H3)methyloxy)cyclohexyl-amino)pyrimidine-5-carbonitrile] it was less than 200 nM. As for `CCO[C@H]1CC[C@H](Nc2ncc(C(N)=O)c(NC(C)(C)C3CC3)n2)CC1` [Example 314, 4-(2-cyclopropylpropan-2-ylamino)-2-((1r,4r)-4-ethoxycyclohexylamino)pyrimidine-5-carboxamide], the IC50 under setting [1] is less than 200 nM. Same read-out and setting: in the case of `CO[C@H]1CC[C@H](Nc2ncc(C(N)=O)c(NC3(C)CCCC3)n2)CC1` [Example 473] it was less than 200 nM; in that of `C[C@H](Nc1nc(N[C@H]2CC[C@H](O)CC2)ncc1C(N)=O)C(C)(C)C` [Example 280, 4-((S)-3,3-dimethylbutan-2-ylamino)-2-((1r,4S)-4-hydroxycyclohexylamino)pyrimidine-5-carboxamide], less than 200 nM. The same measure, in the same setting: in the case of `CNc1nc(N[C@H]2CC[C@H](O)CC2)ncc1C(N)=O` [Example 270, 2-((1r,4r)-4-hydroxycyclohexylamino)-4-(methylamino)pyrimidine-5-carboxamide] it was 200 to 800 nM. With `NC(=O)c1cnc(NCc2ccc(F)cc2)nc1Nc1ccccc1` [Example B-67, 2-(4-fluorobenzylamino)-4-(phenylamino)pyrimidine-5-carboxamide], under setting [3], the IC50 lay in the range of 200 to 800 nM.

As to `CC(C)(Nc1nc(N[C@H]2CC[C@H](OC(F)F)CC2)ncc1C(N)=O)C1CC1` [Example 481, 4-(2-cyclopropylpropan-2-ylamino)-2-((1r,4r)-4-(difluoromethoxy)cyclohexylamino)pyrimidine-5-carboxamide], the IC50 under setting [1] is less than 200 nM. On to `NC(=O)c1cnc(NC2CCOCC2)nc1Nc1ccc2cn[nH]c2c1` [Example B-3, 4-(1H-indazol-6-ylamino)-2-(tetrahydro-2H-pyran-4-ylamino)pyrimidine-5-carboxamide], for which the IC50 under setting [3] is less than 200 nM. On to `CC(C)Nc1ncc(C(N)=O)c(N[C@H]2CC[C@@H](NC(=O)C(C)C)CC2)n1` [Example A-142, 4-((1s,4s)-4-isobutyramidocyclohexylamino)-2-(isopropylamino)pyrimidine-5-carboxamide], for which the IC50 under setting [2] was in the range of 200 to 800 nM.

On to `CCO[C@H]1CC[C@H](Nc2ncc(C#N)c(N[C@@H]3CCCOC3)n2)CC1` [Example C-26, 2-((1r,4R)-4-ethoxycyclohexylamino)-4-((R)-tetrahydro-2H-pyran-3-ylamino)pyrimidine-5-carbonitrile], for which the IC50 under setting [4] lay within 200 to 800 nM.

Consider `CC(C)C(C)(C)Nc1nc(N[C@H]2CC[C@H](O)CC2)ncc1C(N)=O` [Example 275, 4-(2,3-dimethylbutan-2-ylamino)-2-((1r,4r)-4-hydroxycyclohexylamino)pyrimidine-5-carboxamide], for which, under setting [1], the IC50 was less than 200 nM.
